Where two headings read alike, the source gives them in different places.
Assays:
A1 adenosine receptor [1] = molecular target: T1, A1 adenosine receptor (Cavia porcellus, UniProt P47745)
T1 sequence (P47745 1-326): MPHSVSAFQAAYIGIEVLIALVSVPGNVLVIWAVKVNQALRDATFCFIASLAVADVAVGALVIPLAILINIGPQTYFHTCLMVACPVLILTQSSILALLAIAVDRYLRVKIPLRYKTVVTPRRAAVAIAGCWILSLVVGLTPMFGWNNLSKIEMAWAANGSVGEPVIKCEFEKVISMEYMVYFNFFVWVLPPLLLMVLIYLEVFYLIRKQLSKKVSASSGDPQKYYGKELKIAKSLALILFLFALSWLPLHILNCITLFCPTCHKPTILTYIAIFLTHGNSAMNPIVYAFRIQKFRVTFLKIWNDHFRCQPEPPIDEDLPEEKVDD
Method: (§1) The perfusion buffer consisted of 120 mM NaCl, 27 mM NaHCO3, 3.7 mM KCl, 1.3 mM KH2 PO4, 0.64 mM MgSO4, 1.3 mM CaCl2, 2 mM pyruvate, and 5 mM glucose. […] Continuous drainage of the left ventricle by means of a catheter inserted across the mitral valve insured that this cardiac chamber did no external work. An electrode in the right ventricle monitored the electrocardiogram. Timed collections of cardiac effluent in a graduated cylinder during the steady-state phase of the flow responses to compound administration measured total coronary flow, which was also monitored by an in-line electromagnetic flowmeter in the aortic perfusion cannula. The quotient of the ratio of compound infusion (mol/min) divided by coronary flow rate (L/min) equals agonist concentration in the perfusate. […] The quotient of the EC50 of stimulus-QRS prolongation divided by the EC50 of coronary vasodilation provided an index of selectivity.

A2 adenosine receptor [2] = molecular target: A2 adenosine receptor (Cavia porcellus, UniProt P46616)
Method: as §1

A2 adenosine receptor [3] = conditions: read-out: EC50 for coronary vasodilation; coronary arteries (vasodilation); cited from earlier work
A1 adenosine receptor [4] = molecular target: T1, A1 adenosine receptor; conditions: BIOASSAY RESULTS table
Method: as §1

[5] = in words; cited from earlier work
guinea pig heart = test: Second degree heart block (Wenckebach point), Langendorff guinea pig heart; conditions: for minimal effective concentration: Cavia porcellus, read-out: Wenckbach
Method: An electrode in the right ventricle monitored the electrocardiogram. […] The rate of agonist infusion was increased stepwise at intervals of 3-4 minutes until the appearance of second degree heart block (Wenckebach point).

A2 adenosine receptor [6] = test system: A2 adenosine receptor
Method: as §1

[7] = -LOG EC50 A1, BIOASSAY RESULTS table, A1
[8] = -LOG EC50 A2, BIOASSAY RESULTS table, A2
[9] = concentration at appearance of second degree heart block
[10] = EC50 -SQPR, prolongation of stimulus-QRS interval by 50% of maximum response, perfused guinea pig heart
[11] = EC50 -CF, coronary vasodilation, perfused guinea pig heart paced at 260 beats/min
[12] = EC50-SQPR divided by EC50-CF, >1 indicates selectivity for A2 adenosine receptor

Sequence of A2 adenosine receptor (Cavia porcellus, UniProt P46616) (P46616 whole entry): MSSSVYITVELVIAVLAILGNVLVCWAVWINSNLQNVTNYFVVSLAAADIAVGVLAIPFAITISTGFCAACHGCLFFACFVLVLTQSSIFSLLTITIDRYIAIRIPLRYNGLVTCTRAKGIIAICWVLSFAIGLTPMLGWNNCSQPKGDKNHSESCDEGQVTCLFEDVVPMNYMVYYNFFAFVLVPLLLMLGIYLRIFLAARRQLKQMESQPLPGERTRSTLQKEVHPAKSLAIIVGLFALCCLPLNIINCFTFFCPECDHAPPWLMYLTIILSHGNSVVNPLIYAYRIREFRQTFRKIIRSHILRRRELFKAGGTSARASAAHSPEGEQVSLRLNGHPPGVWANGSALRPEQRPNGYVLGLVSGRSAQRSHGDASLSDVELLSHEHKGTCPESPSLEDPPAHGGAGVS

SMILES	EC50 (A1 adenosine receptor [1]; [7]) [nM]	EC50 (A2 adenosine receptor [2]; [8]) [nM]	EC50 (A2 adenosine receptor [2]; [11]) [nM]	Selectivity (SQPR/CF) (A2 adenosine receptor [6]; [12])	minimal effective concentration (guinea pig heart; [9]) [µM]	other results
CCCCCC=NNc1nc(N)c2ncn([C@@H]3O[C@H](CO)[C@@H](O)[C@H]3O)c2n1 [1-Pent, H]	38900	1.02	–	–	–	–
Nc1nc(OCCC2CCCCC2)nc2c1ncn2[C@@H]1O[C@H](CO)[C@@H](O)[C@H]1O [2-(2-cyclohexylethoxy)adenosine]	–	–	–	–	–	EC50 (A2 adenosine receptor [3]): 1 nM
Nc1nc(N)c2ncn([C@@H]3O[C@H](CO)[C@@H](O)[C@H]3O)c2n1 [2-Amino-adenosine, reference compound]	–	224	–	–	–	EC50 (A1 adenosine receptor [1]): 11200 nM
Nc1nc(NN=CCCC2CCCCC2)nc2c1ncn2[C@@H]1O[C@H](CO)[C@@H](O)[C@H]1O [2-C Hexylethyl, H]	9770	–	–	–	–	–
Nc1nc(NN=CCCCC2CCCCC2)nc2c1ncn2[C@@H]1O[C@H](CO)[C@@H](O)[C@H]1O [3-C Hexylpropyl, H]	66100	1.78	–	–	–	–
Nc1nc(NN=CC2CC=CCC2)nc2c1ncn2[C@@H]1O[C@H](CO)[C@@H](O)[C@H]1O (some centres unmarked) [3-Cyclo-hexenyl, H]	–	–	–	–	–	-LOG EC50 A1 (A1 adenosine receptor [4]): 4.86
CC(C)CCC=NNc1nc(N)c2ncn([C@@H]3O[C@H](CO)[C@@H](O)[C@H]3O)c2n1 [3-Me-1-Bu, H]	20900	0.468	–	–	–	–
Nc1ncnc2c1ncn2[C@@H]1O[C@H](CO)[C@@H](O)[C@H]1O [Adenosine, 9-β-D-ribofuranosyl-9H-purin-6-amine]	–	–	–	–	–	cardiovascular activity [5]: hypotensive and bradycardia activity
Nc1nc(NN=Cc2ccc(Cl)cc2)nc2c1ncn2[C@@H]1O[C@H](CO)[C@@H](O)[C@H]1O [Example 1, 6-amino-2-{2-[(4-chlorophenyl)methylene]diazanyl}-9-(β-D-ribofuranosyl)-9H-purine]	–	–	–	–	30.4	–
Nc1nc(NN=CC2CCCCC2)nc2c1ncn2[C@@H]1O[C@H](CO)[C@@H](O)[C@H]1O [Example 3, 6-amino-2-{2-[(cyclohexyl)methylene]diazanyl}-9-(β-D-ribofuranosyl)-9H-purine]	3550	0.257	0.3	–	–	minimal effective concentration (guinea pig heart): 5.92 µM; EC50 (A1 adenosine receptor [1]; [10]): 3550 nM; Selectivity (SQPR/CF) (A2 adenosine receptor [6]): 16,472
NNc1nc(N)c2ncn([C@@H]3O[C@H](CO)[C@@H](O)[C@H]3O)c2n1 [Example 8, 6-amino-2-diazanyl-9-(β-D-ribofuranosyl)-9H-purine, reference compound]	20000	79.4	80.4	301	18.2	EC50 (A1 adenosine receptor [1]; [10]): 14600 nM
Cc1ccc(C=NNc2nc(N)c3ncn([C@@H]4O[C@H](CO)[C@@H](O)[C@H]4O)c3n2)cc1 [Example 9, 6-amino-2-{2-[(4-methylphenyl)methylene]diazanyl}-9-(β-D-ribofuranosyl)-9H-purine]	39800	–	–	–	–	Wenckbach (guinea pig heart; second degree heart block, unit printed nmol (Example 9)): 103,514 nmol
CC(=NNc1nc(N)c2ncn([C@@H]3O[C@H](CO)[C@@H](O)[C@H]3O)c2n1)c1ccc(F)cc1 [Example 10, 6-amino-2-{2-[1-(4-fluorophenyl)ethylidene]diazanyl}-9-(β-D-ribofuranosyl)-9H-purine]	4170	3.24	3.2	1,822	7.3	–
COc1ccc(C=NNc2nc(N)c3ncn([C@@H]4O[C@H](CO)[C@@H](O)[C@H]4O)c3n2)cc1 [Example 11, 6-amino-2-{2-[(4-methoxyphenyl)methylene]diazanyl}-9-(β-D-ribofuranosyl)-9H-purine]	–	–	–	–	50	–
CC(=NNc1nc(N)c2ncn([C@@H]3O[C@H](CO)[C@@H](O)[C@H]3O)c2n1)c1ccccc1 [Example 12, 6-amino-2-{2-[1-(phenyl)ethylidene]diazanyl}-9-(β-D-ribofuranosyl)-9H-purine]	–	–	13	380	11	–
Nc1nc(NN=Cc2cccc3ccccc23)nc2c1ncn2[C@@H]1O[C@H](CO)[C@@H](O)[C@H]1O [Example 14, 6-amino-2-{2-[(1-naphthyl)methylene]diazanyl}-9-(β-D-ribofuranosyl)-9H-purine]	–	–	9.5	110	2	–
Cc1cccc(C=NNc2nc(N)c3ncn([C@@H]4O[C@H](CO)[C@@H](O)[C@H]4O)c3n2)c1 [Example 16, 6-amino-2-{2-[(3-methylphenyl)methylene]diazanyl}-9-(β-D-ribofuranosyl)-9H-purine]	–	–	4.4	–	–	minimal effective concentration (guinea pig heart): 47 µM; Selectivity (SQPR/CF) (A2 adenosine receptor [6]): 4700

Now from value to compound, other results behind:

EC50 (A1 adenosine receptor [1]; [7]) [nM]	EC50 (A2 adenosine receptor [2]; [8]) [nM]	EC50 (A2 adenosine receptor [2]; [11]) [nM]	Selectivity (SQPR/CF) (A2 adenosine receptor [6]; [12])	SMILES	minimal effective concentration (guinea pig heart; [9]) [µM]	other results
66100	1.95	–	–	Nc1nc(NN=CCCCc2ccccc2)nc2c1ncn2[C@@H]1O[C@H](CO)[C@@H](O)[C@H]1O [3-Ph Propyl, H]	–	–
–	2.45	2.5	8,500	Nc1nc(NN=Cc2ccc(F)cc2)nc2c1ncn2[C@@H]1O[C@H](CO)[C@@H](O)[C@H]1O [Example 2, 6-amino-2-{2-[(4-fluorophenyl)methylene]diazanyl}-9-(β-D-ribofuranosyl)-9H-purine]	30.9	EC50 (A1 adenosine receptor [1]; [10]): 12600 nM
2630	4.17	4.2	767	Nc1nc(NN=Cc2ccc3ccccc3c2)nc2c1ncn2[C@@H]1O[C@H](CO)[C@@H](O)[C@H]1O [Example 4, 6-amino-2-{2-[(2-naphthyl)methylene]diazanyl}-9-(β-D-ribofuranosyl)-9H-purine]	10.1	–
–	–	15	2,657	Nc1nc(NN=Cc2cccnc2)nc2c1ncn2[C@@H]1O[C@H](CO)[C@@H](O)[C@H]1O [Example 5, 6-amino-2-{2-[(3-pyridyl)methylene]diazanyl}-9-(β-D-ribofuranosyl)-9H-purine]	63.5	–
–	–	11	2,817	Nc1nc(NN=Cc2ccncc2)nc2c1ncn2[C@@H]1O[C@H](CO)[C@@H](O)[C@H]1O [Example 6, 6-amino-2-{2-[(4-pyridyl)methylene]diazanyl}-9-(β-D-ribofuranosyl)-9H-purine]	68	–
83200	2.29	2.3	43,347	Nc1nc(NN=Cc2ccccc2)nc2c1ncn2[C@@H]1O[C@H](CO)[C@@H](O)[C@H]1O [Example 7, 6-amino-2-{2-(phenylmethylene)diazanyl}-9-(β-D-ribofuranosyl)-9H-purine]	216	–
–	–	5.7	42,000	Nc1nc(NN=Cc2ccccn2)nc2c1ncn2[C@@H]1O[C@H](CO)[C@@H](O)[C@H]1O [Example 13, 6-amino-2-{2-[(2-pyridyl)methylene]diazanyl}-9-(β-D-ribofuranosyl)-9H-purine]	–	minimal effective concentration (guinea pig heart; second degree heart block, unit inferred): 110 µM
–	–	14	4400	Nc1nc(NN=Cc2cccs2)nc2c1ncn2[C@@H]1O[C@H](CO)[C@@H](O)[C@H]1O [Example 15, 6-amino-2-{2-[(2-thienyl)methylene]diazanyl}-9-(β-D-ribofuranosyl)-9H-purine]	93	–

— patent US5278150A, “2-hydrazoadenosines and their utility for the treatmeat of vascular conditions” (Whitby Research, Inc., priority 1992, dated 1994)
